Results: ChEMBL document CHEMBL5247617, “4-Arylthiosemicarbazide derivatives - Pharmacokinetics, toxicity and anti-Toxoplasma gondii activity in vivo” (Eur J Med Chem, 2022)
Active and inactive are the calls of the source. The calls are words filed in the database; no cut-off is given here.

What was measured:
[1] = Toxicity in BALB/c mouse assessed as increase in creatinine level at 20 mg/kg, po administered for 5 days and measured after 1 day by colorimetric assay; format: organism-based; details: in vivo, 120 h, time 5 day
[2] = Toxicity in BALB/c mouse assessed as increase in liver weight at 20 mg/kg, po administered for 5 days and measured after 1 day; format: organism-based; details: in vivo, 120 h, time 5 day
[3] = Toxicity in BALB/c mouse assessed as hydropic degeneration at 20 mg/kg, po administered for 5 days and measured after 1 day by hematoxylin-eosin staining based microscopic analysis; format: organism-based; details: in vivo, 120 h, time 5 day
Toxoplasma gondii [4] = test: Antiparasitic activity against Toxoplasma gondii RH infected in BALB/c mouse assessed as decrease in IFNgamma level in serum at 20 mg/kg, po administered every 24 hrs for 5 days starting from 24 hrs post infection by ELISA method; format: functional, organism-based; details: time 5.0 day
[5] = Toxicity in BALB/c mouse assessed as increase in serum AST level at 20 mg/kg, po administered for 5 days and measured on day 1 and day 14 by ELISA method; format: organism-based; details: in vivo, 120 h, time 5 day
[6] = Toxicity in BALB/c mouse assessed as increase in serum ALT level at 20 mg/kg, po administered for 5 days and measured on day 1 and day 14 by ELISA method; format: organism-based; details: in vivo, 120 h, time 5 day
Toxoplasma gondii [7] = test: Antiparasitic activity against Toxoplasma gondii RH infected in BALB/c mouse assessed as prolongation of animal survival at 20 mg/kg, po administered every 24 hrs for 5 days starting from 24 hrs post infection by Kaplan-Meier method; format: functional, organism-based; details: time 5.0 day
[8] = Toxicity in BALB/c mouse assessed as changes in liver weight at 20 mg/kg, po administered for 5 days and measured after 14 days; format: organism-based; details: in vivo, 120 h, time 5 day
Toxoplasma gondii [9] = test: Antiparasitic activity against Toxoplasma gondii RH infected in BALB/c mouse assessed as reduction in number of bradyzoite gene copies in muscles at 20 mg/kg, po administered every 24 hrs for 5 days starting from 24 hrs post infection by real-time qPCR analysis; format: functional; details: time 5 day
Toxoplasma gondii [10] = test: Antiparasitic activity against Toxoplasma gondii DX infected in C3H/HeOuJ mouse assessed as prolongation of survival at 20 mg/kg, po administered every 24 hrs for 5 days starting from 24 hrs post infection by Kaplan-Meier method; format: functional, organism-based; details: time 5.0 day
Toxoplasma gondii [11] = test: Antiparasitic activity against Toxoplasma gondii RH infected in BALB/c mouse assessed as reduction of bradyzoite gene copies in brain at 20 mg/kg, po administered every 24 hrs for 5 days starting from 24 hrs post infection by real-time qPCR analysis; format: functional, organism-based; details: time 5.0 day
[12] = AUC in BALB/c mouse brain at 50 mg/kg, po measured upto 24 hrs by LC-MS/MS analysis; format: ADME, organism-based; parameters: dose 50 mg/kg, time < 24 hrs, route po
[13] = Toxicity in BALB/c mouse assessed as increase in serum ALT level at 50 mg/kg, po administered for 5 days and measured after 14 days by ELISA method; format: organism-based; details: in vivo, 120 h, time 5 day
Toxoplasma gondii [14] = test: Antiparasitic activity against Toxoplasma gondii RH infected in BALB/c mouse assessed as reduction in number of bradyzoite gene copies in muscles at 25 mg/kg, po administered every 24 hrs for 5 days starting from 24 hrs post infection by real-time qPCR analysis; format: functional; details: time 5 day
[15] = AUC in BALB/c mouse brain at 25 mg/kg, po measured upto 24 hrs by LC-MS/MS analysis; format: ADME, organism-based; parameters: time < 24 hrs, dose 25 mg/kg, route po
[16] = Cmax in BALB/c mouse brain at 50 mg/kg, po measured upto 24 hrs by LC-MS/MS analysis; format: ADME, organism-based; parameters: time < 24 hrs, dose 50 mg/kg, route po; details: in vivo
Toxoplasma gondii [17] = test: Antiparasitic activity against Toxoplasma gondii RH infected in BALB/c mouse assessed as prolongation of animal survival at 25 to 50 mg/kg, po administered for 5 days starting from 24 hrs post infection by Kaplan-Meier method; format: functional, organism-based; details: dose 25-50 mg/kg, time 5.0 day
Toxoplasma gondii [18] = test: Antiparasitic activity against Toxoplasma gondii RH infected in BALB/c mouse assessed as decrease in number of bradyzoite gene copies in brain at 50 mg/kg, po administered every 24 hrs for 5 days starting from 24 hrs post infection by real-time qPCR analysis; format: functional, organism-based; details: time 5.0 day
[19] = Toxicity in BALB/c mouse assessed as changes in size of hepatocyte nuclei at 50 mg/kg, po administered for 5 days and measured after 14 days by hematoxylin-eosin staining based microscopic analysis; format: organism-based; details: hepatocytes, 120 h, time 5 day
[20] = Elimination half-life in BALB/c mouse brain at 50 mg/kg, po measured upto 24 hrs by LC-MS/MS analysis; format: ADME, organism-based; details: read-out: beta t1/2 (converted)
[21] = Oral bioavailability in BALB/c mouse serum at 50 mg/kg measured upto 60 mins by LC-MS/MS analysis; format: ADME, organism-based
Toxoplasma gondii [22] = test: Antiparasitic activity against Toxoplasma gondii RH infected in BALB/c mouse assessed as reduction of daughter tachyzoites in blood at 25 to 50 mg/kg, po administered for 5 days starting from 24 hrs post infection by real-time qPCR analysis; format: functional, organism-based; details: dose 25-50 mg/kg, time 5.0 day
[23] = Toxicity in BALB/c mouse assessed as changes in creatinine level at 50 mg/kg, po administered for 5 days and measured on day 1 and day 14 by colorimetric assay; format: organism-based; details: in vivo, 120 h, time 5 day
[24] = Oral bioavailability in BALB/c mouse brain at 25 mg/kg measured upto 24 hrs by LC-MS/MS analysis; format: ADME, organism-based
Toxoplasma gondii [25] = test: Antiparasitic activity against Toxoplasma gondii RH infected in BALB/c mouse assessed as survival rate at 50 mg/kg, po administered every 12 hrs for 5 days starting from 24 hrs post infection by Kaplan-Meier method; format: functional; details: 120 h, time 5 day
[26] = Cmax in BALB/c mouse brain at 25 mg/kg, po measured upto 24 hrs by LC-MS/MS analysis; format: ADME, organism-based; parameters: time < 24 hrs, dose 25 mg/kg, route po; details: in vivo
[27] = Oral bioavailability in BALB/c mouse brain at 50 mg/kg measured upto 24 hrs by LC-MS/MS analysis; format: ADME, organism-based
[28] = Toxicity in BALB/c mouse assessed as changes in liver weight at 50 mg/kg, po administered for 5 days and measured after 14 days; format: organism-based; details: in vivo, 120 h, time 5 day
[29] = Toxicity in BALB/c mouse assessed as changes in body weight at 1000 mg/kg, po administered once and observed for 10 days; format: organism-based; details: in vivo, 240 h, time 10 day
[30] = Toxicity in BALB/c mouse assessed as disseminated necrosis of hepatocytes at 50 mg/kg, po administered for 5 days and measured after 14 days by hematoxylin-eosin staining based microscopic analysis; format: organism-based; details: in vivo, 120 h, time 5 day
[31] = Cmax in BALB/c mouse serum at 25 mg/kg, po measured upto 60 mins by LC-MS/MS analysis; format: ADME, organism-based; parameters: dose 25 mg/kg, time < 60 min, route po; details: in vivo, 1 h
L929 = test: Cytotoxicity against mouse L929 cells assessed as reduction in cell viability incubated for 24 hrs by MTT assay; format: toxicity, cell-based; details: l929, 24 h
[32] = Oral bioavailability in BALB/c mouse serum at 25 mg/kg measured upto 60 mins by LC-MS/MS analysis; format: ADME, organism-based
[33] = Elimination half-life in BALB/c mouse serum at 50 mg/kg, po measured upto 60 mins by LC-MS/MS analysis; format: ADME, organism-based; details: in vivo, 1 h
Toxoplasma gondii [34] = test: Antiparasitic activity against Toxoplasma gondii RH infected in BALB/c mouse assessed as decrease in IFNgamma level in serum at 25 to 50 mg/kg, po administered for 5 days starting from 24 hrs post infection by ELISA method; format: functional, organism-based; details: dose 25-50 mg/kg, time 5.0 day
[35] = AUC in BALB/c mouse serum at 25 mg/kg, po measured upto 60 mins by LC-MS/MS analysis; format: ADME, organism-based; parameters: dose 25 mg/kg, time < 60 min, route po; details: in vivo, 1 h
[36] = Elimination half-life in BALB/c mouse serum at 25 mg/kg, po measured upto 60 mins by LC-MS/MS analysis; format: ADME, organism-based; details: in vivo, 1 h
Toxoplasma gondii [37] = test: Antiparasitic activity against Toxoplasma gondii DX infected in C3H/HeOuJ mouse assessed as prolongation of survival at 25 to 50 mg/kg, po administered for 5 days starting from 24 hrs post infection by Kaplan-Meier method; format: functional, organism-based; details: dose 25-50 mg/kg, time 5.0 day
[38] = Elimination half-life in BALB/c mouse brain at 25 mg/kg, po measured upto 24 hrs by LC-MS/MS analysis; format: ADME, organism-based; details: read-out: beta t1/2 (converted)
[39] = Tmax in BALB/c mouse serum at 25 mg/kg, po measured upto 60 mins by LC-MS/MS analysis; format: ADME, organism-based; details: in vivo, 1 h
[40] = Tmax in BALB/c mouse serum at 50 mg/kg, po measured upto 60 mins by LC-MS/MS analysis; format: ADME, organism-based; details: in vivo, 1 h
[41] = Tmax in BALB/c mouse brain at 50 mg/kg, po measured upto 24 hrs by LC-MS/MS analysis; format: ADME, organism-based
Toxoplasma gondii [42] = test: Antiparasitic activity against Toxoplasma gondii RH infected in human Hs27 cells assessed as parasitic growth inhibition incubated for 24 hrs followed by [5,6-3H] uracil addition and measured after 72 hrs by liquid scintillation counter analysis; format: functional, organism-based
[43] = Toxicity in BALB/c mouse assessed as changes in liver weight at 50 mg/kg, po administered for 5 days and measured after 1 day; format: organism-based; details: in vivo, 120 h, time 5 day
HS27 = test: Cytotoxicity against human HS27 cells assessed as reduction in cell viability; format: toxicity, cell-based
Toxoplasma gondii [44] = test: Antiparasitic activity against Toxoplasma gondii RH infected in BALB/c mouse assessed as reduction of bradyzoite gene copies in heart at 25 mg/kg, po administered every 24 hrs for 5 days starting from 24 hrs post infection by real-time qPCR analysis; format: functional, organism-based; details: time 5.0 day
[45] = AUC in BALB/c mouse serum at 50 mg/kg, po measured upto 60 mins by LC-MS/MS analysis; format: ADME, organism-based; parameters: time < 60 min, dose 50 mg/kg, route po; details: in vivo, 1 h
[46] = Toxicity in BALB/c mouse assessed as disseminated necrosis of hepatocytes at 50 mg/kg, po administered for 5 days and measured after 1 day by hematoxylin-eosin staining based microscopic analysis; format: organism-based; details: in vivo, 120 h, time 5 day
[47] = Toxicity in BALB/c mouse assessed as changes in serum AST level at 50 mg/kg, po administered for 5 days and measured on day 1 and day 14 by ELISA method; format: organism-based; details: in vivo, 120 h, time 5 day
[48] = Toxicity in BALB/c mouse assessed as changes in body weight at 25 to 50 mg/kg, po administered for 5 days and measured on day 1 and day 14; format: organism-based; details: in vivo, 120 h, dose 25-50 mg/kg, time 5 day
[49] = Tmax in BALB/c mouse brain at 25 mg/kg, po measured upto 24 hrs by LC-MS/MS analysis; format: ADME, organism-based
[50] = Toxicity in BALB/c mouse assessed as microvesicular steatosis of hepatocytes at 50 mg/kg, po administered for 5 days and measured after 1 day by hematoxylin-eosin staining based microscopic analysis; format: organism-based; details: in vivo, 120 h, time 5 day
[51] = Cmax in BALB/c mouse serum at 50 mg/kg, po measured upto 60 mins by LC-MS/MS analysis; format: ADME, organism-based; parameters: time < 60 min, dose 50 mg/kg, route po; details: in vivo, 1 h

Compound: COc1cc(Cc2cnc(N)nc2N)cc(OC)c1OC [TRIMETHOPRIM]
- Activity [1]: Toxic
- Activity [2]: Toxic
- Activity [3]: Toxic
- Activity (Toxoplasma gondii [4]): inactive
- Activity [5]: Non-Toxic
- Activity [6]: Non-Toxic
- Activity (Toxoplasma gondii [7]): Active
- Activity [8]: Non-Toxic
- Activity (Toxoplasma gondii [9]): 36
- Activity (Toxoplasma gondii [10]): Active
- Activity (Toxoplasma gondii [11]): Active

Compound: Cc1nc[nH]c1C(=O)NNC(=S)Nc1ccc([N+](=O)[O-])cc1
- AUC at 24 h [12]: 47.5 ng·h/mL
- Activity [13]: Non-Toxic
- Activity (Toxoplasma gondii [14]): 20
- AUC at 24 h [15]: 24.9 ng·h/mL
- Cmax [16]: 32.27 ng/mg
- Activity (Toxoplasma gondii [17]): Active
- Activity (Toxoplasma gondii [18]): Active
- Activity [19]: Toxic
- half-life [20]: 54.6 min
- bioavailability [21]: 4.06%
- Activity (Toxoplasma gondii [22]): Active
- Activity [23]: Non-Toxic
- bioavailability [24]: 0.46%
- survival at 50 mg/kg (Toxoplasma gondii [25]): 20%
- Cmax [26]: 7.74 ng/mg
- bioavailability [27]: 1.17%
- Activity [28]: Non-Toxic
- Activity [29]: Non-Toxic
- Activity [30]: Toxic
- Cmax [31]: 6400 ng/mL
- CC30 (L929): 682.98 µM
- bioavailability [32]: 10.7%
- beta t1/2 [33]: 24 min
- Activity (Toxoplasma gondii [34]): Active
- AUC [35]: 53700 ng·h/mL
- beta t1/2 [36]: 52.8 min
- Activity (Toxoplasma gondii [37]): Active
- half-life [38]: 175 min
- Tmax [39]: 30 min
- Tmax [40]: 15 min
- Tmax [41]: 30 min
- IC50 (Toxoplasma gondii [42]): 67.5 µM
- Activity [43]: Non-Toxic
- CC30 (HS27): 697.67 µM
- Activity (Toxoplasma gondii [44]): Active
- AUC [45]: 40640 ng·h/mL
- Activity [46]: Toxic
- Activity [47]: Non-Toxic
- Activity [48]: Non-Toxic
- Tmax [49]: 120 min
- Activity [50]: Toxic
- Cmax [51]: 11080 ng/mL
